# “And” between values parts separate entries of the source, which are not always exact repeats. Identical values can stand only once. Toxic doses and inconclusive results are not listed.
# System: P388 leukemia ip, CD2F1 mice, survival T/C
# Experiment: NCI In Vivo Anticancer Drug Screen. Data for tumor model P388 Leukemia (intraperitoneal) in CD2F1 (CDF1) mice
# Conditions: endpoint: median survival time, higher = longer survival
# Outline: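 Mice carrying the transplanted tumor received test compound or vehicle. Survival was recorded in each group, and the value is the treated-group measurement divided by that of the vehicle-treated control group.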
# [1] = dose: 50.0 mg/kg/injection, schedule: Q01DX005 (ip), vehicle: saline with Tween-80
# [2] = dose: 100.0 mg/kg/injection, schedule: Q01DX005 (ip), vehicle: saline with Tween-80
# [3] = dose: 200.0 mg/kg/injection, schedule: Q01DX005 (ip), vehicle: saline with Tween-80
# [4] = dose: 100.0 mg/kg/injection, schedule: Q01DX009 (ip), vehicle: Klucel (hydroxypropylcellulose) (HPC)
# [5] = dose: 200.0 mg/kg/injection, schedule: Q01DX009 (ip), vehicle: Klucel (hydroxypropylcellulose) (HPC)
# [6] = dose: 60.0 mg/kg/injection, schedule: Q01DX005 (ip), vehicle: saline with Tween-80
# [7] = dose: 120.0 mg/kg/injection, schedule: Q01DX005 (ip), vehicle: saline with Tween-80
# [8] = dose: 240.0 mg/kg/injection, schedule: Q01DX005 (ip), vehicle: saline with Tween-80
# [9] = dose: 100.0 mg/kg/injection, schedule: Q04DX002 (ip), vehicle: saline with Tween-80
# [10] = dose: 200.0 mg/kg/injection, schedule: Q04DX002 (ip), vehicle: saline with Tween-80
# [11] = dose: 25.0 mg/kg/injection, schedule: Q01DX009 (ip), vehicle: saline with Tween-80
# [12] = dose: 50.0 mg/kg/injection, schedule: Q01DX009 (ip), vehicle: saline with Tween-80
# [13] = dose: 100.0 mg/kg/injection, schedule: Q04DX003 (ip), vehicle: saline with Tween-80
# [14] = dose: 200.0 mg/kg/injection, schedule: Q04DX003 (ip), vehicle: saline with Tween-80
# [15] = dose: 400.0 mg/kg/injection, schedule: Q04DX003 (ip), vehicle: saline with Tween-80
# [16] = dose: 100.0 mg/kg/injection, schedule: Q01DX009 (ip), vehicle: saline with Tween-80
# [17] = dose: 200.0 mg/kg/injection, schedule: Q01DX009 (ip), vehicle: saline with Tween-80
# [18] = dose: 30.0 mg/kg/injection, schedule: Q01DX005 (ip), vehicle: saline with Tween-80
smiles,measurement,setting,value
CC(=O)/C(=C\c1ccc(/C=C(\C(C)=O)C(=O)CCN(C)C)cc1)C(=O)CCN(C)C,T/C,[1],109 % of control and 118 % of control
same,T/C,[2],120 % of control
same,T/C,[3],105 % of control
same,T/C,"dose: 400.0 mg/kg/injection, schedule: Q01DX005 (ip), vehicle: saline with Tween-80",120 % of control
O=C(NCCF)Oc1ccc([N+](=O)[O-])cc1,T/C,"dose: 6.25 mg/kg/injection, schedule: Q01DX005 (ip), vehicle: Klucel (hydroxypropylcellulose) (HPC)",106 % of control
same,T/C,"dose: 12.5 mg/kg/injection, schedule: Q01DX005 (ip), vehicle: Klucel (hydroxypropylcellulose) (HPC)",113 % of control and 115 % of control
same,T/C,"dose: 25.0 mg/kg/injection, schedule: Q01DX005 (ip), vehicle: Klucel (hydroxypropylcellulose) (HPC)",121 % of control and 122 % of control
FC(F)(F)c1nc2nc(Cl)c(Cl)nc2[nH]1,T/C,"dose: 25.0 mg/kg/injection, schedule: Q04DX003 (ip), vehicle: other",100 % of control
same,T/C,"dose: 50.0 mg/kg/injection, schedule: Q04DX003 (ip), vehicle: other",109 % of control
CCC1(C)NN=C2C(=CC=C3NNC(C)(CC)N32)n2cccc21 (stereo not drawn),T/C,[1],102 % of control
same,T/C,[2],110 % of control
same,T/C,[3],119 % of control
S=P(Nc1ccccc1)(Nc1ccccc1)c1ccccc1,T/C,[4],103 % of control
same,T/C,[5],106 % of control
same,T/C,"dose: 400.0 mg/kg/injection, schedule: Q01DX009 (ip), vehicle: Klucel (hydroxypropylcellulose) (HPC)",95 % of control
CCN(CC)CCOc1ccc(N=Nc2ccc(N)nc2N)cc1,T/C,[6],102 % of control
same,T/C,[7],93 % of control
same,T/C,[8],101 % of control
O=C1CNC(=O)C(O)N1 (stereo not drawn),T/C,[1],93 % of control
same,T/C,[2],100 % of control
same,T/C,[3],97 % of control
c1ccc(C23CCCCC2=Nc2ccccc23)cc1 (stereo not drawn),T/C,"dose: 50.0 mg/kg/injection, schedule: Q01DX005 (ip), vehicle: saline",104 % of control
same,T/C,"dose: 100.0 mg/kg/injection, schedule: Q01DX005 (ip), vehicle: saline",105 % of control
same,T/C,"dose: 200.0 mg/kg/injection, schedule: Q01DX005 (ip), vehicle: saline",107 % of control
CC1(C)CC2C=C(C=O)C3(C=O)CC3(C)C2C1 (stereo not drawn),T/C,"dose: 0.78 mg/kg/injection, schedule: Q01DX009 (ip), vehicle: Klucel (hydroxypropylcellulose) (HPC)",96 % of control
same,T/C,"dose: 1.56 mg/kg/injection, schedule: Q01DX009 (ip), vehicle: Klucel (hydroxypropylcellulose) (HPC)",112 % of control
same,T/C,"dose: 3.12 mg/kg/injection, schedule: Q01DX009 (ip), vehicle: Klucel (hydroxypropylcellulose) (HPC)",111 % of control
same,T/C,"dose: 6.25 mg/kg/injection, schedule: Q01DX009 (ip), vehicle: Klucel (hydroxypropylcellulose) (HPC)",111 % of control
COC(=O)c1cn[nH]c1CC#N,T/C,[9],92 % of control
same,T/C,[10],100 % of control
Nc1cn(C2OC(CO)C(O)C2O)c(=O)[nH]c1=O (stereo not drawn),T/C,[11],95 % of control
same,T/C,[12],92 % of control
COc1cc(C=O)c(C=O)cc1OC,T/C,"dose: 25.0 mg/kg/injection, schedule: Q04DX003 (ip), vehicle: saline with Tween-80",100 % of control
CC(C)=CC(=O)NCCO,T/C,"dose: 100.0 mg/kg/injection, schedule: Q04DX002 (ip), vehicle: saline",100 % of control
same,T/C,"dose: 200.0 mg/kg/injection, schedule: Q04DX002 (ip), vehicle: saline",100 % of control
same,T/C,"dose: 400.0 mg/kg/injection, schedule: Q04DX002 (ip), vehicle: saline",105 % of control
Nc1ccc(N)c(N)n1,T/C,"dose: 6.25 mg/kg/injection, schedule: Q01DX009 (ip), vehicle: saline",95 % of control
same,T/C,"dose: 12.5 mg/kg/injection, schedule: Q01DX009 (ip), vehicle: saline",104 % of control
same,T/C,"dose: 25.0 mg/kg/injection, schedule: Q01DX009 (ip), vehicle: saline",100 % of control
CC(C)=CCOc1ccc2ccc(=O)oc2c1,T/C,"dose: 5.0 mg/kg/injection, schedule: Q01DX009 (ip), vehicle: saline with Tween-80",106 % of control
same,T/C,"dose: 10.0 mg/kg/injection, schedule: Q01DX009 (ip), vehicle: saline with Tween-80",108 % of control
same,T/C,"dose: 20.0 mg/kg/injection, schedule: Q01DX009 (ip), vehicle: saline with Tween-80",103 % of control
COc1cccc(C(=O)O)c1OC,T/C,[13],100 % of control
same,T/C,[14],100 % of control
same,T/C,[15],90 % of control
Cc1ccnc2n[nH]nc12,T/C,"dose: 100.0 mg/kg/injection, schedule: Q04DX002 (ip), vehicle: water",109 % of control
same,T/C,"dose: 200.0 mg/kg/injection, schedule: Q04DX002 (ip), vehicle: water",107 % of control
same,T/C,"dose: 400.0 mg/kg/injection, schedule: Q04DX002 (ip), vehicle: water",103 % of control
CCC1C(=O)NC(=O)C1(C)c1ccccc1 (stereo not drawn),T/C,[11],100 % of control and 102 % of control
same,T/C,[12],100 % of control and 105 % of control
same,T/C,[16],102 % of control and 103 % of control
same,T/C,[17],102 % of control and 111 % of control
CCOC(=O)c1ccc(NCc2cccc([N+](=O)[O-])c2)cc1,T/C,"dose: 100.0 mg/kg/injection, schedule: Q04DX003 (ip), vehicle: saline",109 % of control
same,T/C,"dose: 200.0 mg/kg/injection, schedule: Q04DX003 (ip), vehicle: saline",101 % of control
same,T/C,"dose: 400.0 mg/kg/injection, schedule: Q04DX003 (ip), vehicle: saline",101 % of control
O=S1CCCS(=O)C1c1ccccc1 (stereo not drawn),T/C,[6],100 % of control
same,T/C,[7],91 % of control
same,T/C,[8],97 % of control
CC(COC(=O)c1cccc([N+](=O)[O-])c1C(=O)O)c1ccccc1 (stereo not drawn),T/C,[9],98 % of control
same,T/C,[10],109 % of control
same,T/C,"dose: 400.0 mg/kg/injection, schedule: Q04DX002 (ip), vehicle: saline with Tween-80",110 % of control
CCCCCCCCCCCCCCCCC1(C)c2ccccc2N(C)C12C=Cc1cc([N+](=O)[O-])ccc1O2 (stereo not drawn),T/C,[13],103 % of control
same,T/C,[14],100 % of control
same,T/C,[15],100 % of control
Cc1cc(NC(=O)c2ccccc2O)n(-c2ccccc2)n1,T/C,"dose: 100.0 mg/kg/injection, schedule: Q01DX001 (ip), vehicle: saline with Tween-80",97 % of control
same,T/C,"dose: 200.0 mg/kg/injection, schedule: Q01DX001 (ip), vehicle: saline with Tween-80",100 % of control
same,T/C,"dose: 400.0 mg/kg/injection, schedule: Q01DX001 (ip), vehicle: saline with Tween-80",95 % of control
CCN(CC)CCNc1cc2ccccc2c2sc3ccccc3c(=O)c12,T/C,"dose: 25.0 mg/kg/injection, schedule: Q01DX005 (ip), vehicle: distilled water + Tween-80",102 % of control
same,T/C,"dose: 50.0 mg/kg/injection, schedule: Q01DX005 (ip), vehicle: distilled water + Tween-80",103 % of control
COc1cc(C2C(C(C)=O)=C(C)Oc3cc4c(cc32)OCO4)cc(OC)c1O (stereo not drawn),T/C,"dose: 15.0 mg/kg/injection, schedule: Q01DX005 (ip), vehicle: saline with Tween-80",91 % of control
same,T/C,[18],91 % of control
same,T/C,[6],86 % of control and 90 % of control
C[n+]1c(-c2ccc(/C=N/Nc3ccnc(N/N=C/c4ccc(-c5cn6ccccc6[n+]5C)cc4)n3)cc2)cn2ccccc21,T/C,[18],150 % of control
same,T/C,[6],88 % of control
Cc1cccc(/C=N/Nc2cc(C)nc3ccccc23)n1,T/C,"dose: 50.0 mg/kg/injection, schedule: Q01DX009 (ip), vehicle: Klucel (hydroxypropylcellulose) (HPC)",109 % of control
same,T/C,[4],118 % of control
same,T/C,[5],117 % of control
c1ccc2[nH]c(N=Nc3cccc4c(N=Nc5cc6ccccc6[nH]5)cccc34)cc2c1,T/C,[12],100 % of control
same,T/C,[16],100 % of control
same,T/C,[17],103 % of control
Cc1ccc(C(=O)n2c(Br)c(/C=N/NC(N)=S)c3ccccc32)cc1,T/C,"dose: 100.0 mg/kg/injection, schedule: Q01DX001 (ip), vehicle: Klucel (hydroxypropylcellulose) (HPC)",100 % of control
same,T/C,"dose: 200.0 mg/kg/injection, schedule: Q01DX001 (ip), vehicle: Klucel (hydroxypropylcellulose) (HPC)",100 % of control
same,T/C,"dose: 400.0 mg/kg/injection, schedule: Q01DX001 (ip), vehicle: Klucel (hydroxypropylcellulose) (HPC)",95 % of control

# Reference: PubChem BioAssay AID330 (DTP/NCI, 2004)
